Assay results from patent publication US20250255847A1, “[…]s: Novel Drugs for Triple Negative Breast Cancer” (SIMMARON RSEARCH INC, priority 2024, published 2025).

Test system: transcriptional activity of STAT3
Test: STAT3-responsive eGFP reporter assay in MDA-MB-468 cells
Assay type: cell-based, human
Settings: for EGF-induced GFP reporter activity: EGF 20 ng/mL, different doses; for IC50: Homo sapiens, MDA-MB-468, read-out: IC50 of STAT3 activation (eGFP reporter); for lowest concentration inhibiting STAT3 activation (eGFP reporter): as low as
Description: FIG. 10 illustrates an embodiment of the present invention and illustrates SIM-1 and SIM-2 inhibit expressions of IL6, RANTES, and other STAT3-dependent tumor promoting genes and proteins. (A) A gene array of STAT3 dependent 66 genes (listed in Table 1) was performed in mRNA samples of MDA-MB-468 cells. Realtime PCR plate coated with 66 primer sets of STAT3-dependent genes was run for four conditions including control, EGF (25 ng/mL), EGF+SIM-1 (10 nM) and EGF+SIM-2 (10 nM). The resultant Ct value was normalized with four different housekeeping genes, and then summarized with a heatmap analyses drawn in Morpheus server of Broad Institute. […] (C) The cloning of STAT3 response element of IL6 promoter upstream of GFP reporter was performed by GeneCopoea genome editing service (Rockville, MD). The bit score map and sequence of consensus STAT3 response element or SEQ ID NO: 2 was shown below. EGFP reporter assay was performed in EGF-induced (20 ng/mL) MDA-MB-468 after treatments of increasing doses of (D) SIM-1 and (E) SIM-2 for 5 hrs. Briefly, MDA-MB-468 cells were transfected with the plasmid for 24 hrs using Lipofectamine transfection strategy followed by the treatment with EGF (20 ng/mL) alone and together with increasing doses SIM-1 and SIM-2 for additional 5 hrs. After that live cells were recorded at Ex:Em=485/535 nm wavelength for GFP activity. (F) The scrambled STAT3 response element in IL6 promoter or SEQ ID NO: 3 was also synthesized partnering with GeneCopoea. One-way ANOVA (treatment as effector) was adopted to test the significance between groups at **p<0.01, #p<0.005, and *p<0.05. (G) The GFP reporter activity was measured where the scrambled gene was cloned upstream of eGFP reporter. Results are mean±SD of three different experiments Ns=no significance. (H) Realtime PCR analyses of IL6 was performed in MDA-MB-468 cells maintained under control, EGF (25 ng/mL), EGF+SIM-1(20 nM), and EGF+SIM-2 (20 nM) conditions for 5 hrs. (I) ELISA analysis of IL6 was performed after 48 hrs in MDA-MB-468 cells kept under similar treatment conditions. (J) Realtime PCR (5 hrs post-treatment) and (K) ELISA analyses of RANTES (48 hrs post treatment) were performed under similar condition. Results are mean±SD of three different experiments. One-way ANOVA (treatment as effector) was adopted to test the significance between groups at ***p<0.001, **p<0.01, and *p<0.05.
GFP reporter assay. To assay the transcriptional activities of STAT3, cells at 75% confluence were transfected by 0.1 μg of pEZX-PF02 plasmid cloned with STAT3 response element of IL6 promoter upstream of eGFP reporter. The transfection was done by Lipofectamine 3000™ reagent as per the manufacturer's protocol (Thermofisher). […] GFP reporter activities were analyzed in PerkinElmer VictorX3 plate reader at Ex:Em=485/535 nm.
Once recruited to the DNA, STAT3 controls the gene transcription. Therefore finally, an eGFP reporter assay was performed to evaluate if SIM-1 and SIM-2 inhibited the transcriptional activity of STAT3. An eGFP reporter cassette was cloned under the guidance of IL6 promoter carrying STAT response element (FIG. 10C), transfected in MDA-MB-468 cells, and then treated by EGF (20 ng/mL) along with different doses of SIM-1 and SIM-2.

Structure (SMILES) | EGF-induced GFP reporter activity | IC50 | lowest concentration inhibiting STAT3 activation (eGFP reporter)
O=C(O)CCC(=O)NCc1csc2ccc(Cl)cc12 [SIM-1, 4-[(5-chloro-1-benzothiophen-3-yl)methylamino]-4-oxobutanoic acid] | dose-dependently inhibited | ~20 nM | 5 nM
CCOC(=O)c1c(NC(C)=O)sc2c(Cl)c(/C=N/O)ccc12 [SIM-2, ethyl 2-acetamido-7-chloro-6-(hydroxyiminomethyl)-1-benzothiophene-3-carboxylate] | dose-dependently inhibited | ~20 nM | 5 nM
